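The compound was tested at five concentrations on cells cultured in 96-well plates, with a 48-hour exposure period. At the GI50, growth is halved. TGI: total growth inhibition.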
Columns and labels:
Test in all cases: growth of human tumour cells (NCI), 48 h
[1] = test system: M14 melanoma
[2] = test system: 786-0 renal
[3] = test system: SK-MEL-28 melanoma
[4] = test system: RPMI-8226 leukemia
[5] = test system: OVCAR-3 ovarian
[6] = test system: EKVX NSCLC
[7] = test system: LOX IMVI melanoma
[8] = test system: KM12 colon
[9] = test system: NCI/ADR-RES ovarian
[10] = test system: NCI-H522 lung
[11] = test system: UACC-257 melanoma
[12] = test system: K-562 leukemia
[13] = test system: MDA-MB-435
[14] = test system: SN12C renal
[15] = test system: MDA-MB-231 breast
[16] = test system: UACC-62 melanoma
[17] = test system: SNB-19 CNS
[18] = test system: SF-539 CNS
[19] = test system: HCC-2998 colon
[20] = test system: HS 578T breast
[21] = test system: SK-OV-3 ovarian
[22] = test system: TK-10 renal
[23] = test system: DU-145 prostate
[24] = test system: HOP-62 NSCLC
[25] = test system: A549 NSCLC
[26] = test system: MCF7 breast
[27] = test system: NCI-H460 lung
[28] = test system: OVCAR-4 ovarian
[29] = test system: IGROV1 ovarian
[30] = test system: HCT-15 colon
[31] = test system: COLO 205 colon
[32] = test system: CAKI-1 renal
[33] = test system: MOLT-4 leukemia
[34] = test system: NCI-H226 lung
[35] = test system: A498 renal
[36] = test system: MALME-3M melanoma
[37] = test system: SK-MEL-5 melanoma
[38] = test system: SF-268 CNS
[39] = test system: T-47D breast
[40] = test system: RXF 393 renal
[41] = test system: NCI-H23 lung
[42] = test system: OVCAR-5 ovarian
[43] = test system: BT-549 breast
[44] = test system: U251 CNS
[45] = test system: SF-295 CNS
[46] = test system: HT29 colon
[47] = test system: HL-60(TB) leukemia
[48] = test system: CCRF-CEM leukemia
[49] = test system: PC-3 prostate
[50] = test system: HOP-92 NSCLC
[51] = test system: SK-MEL-2 melanoma
[52] = test system: OVCAR-8 ovarian
[53] = test system: ACHN renal
[54] = test system: HCT-116 colon
[55] = test system: SW-620 colon
[56] = test system: SNB-75 CNS
[57] = test system: UO-31 renal

COC1C(CO)OC(n2c3ccccc3c3c4c(c5c6ccccc6[nH]c5c32)C(=O)NC4=O)C(OC(=O)C(N)CCCCN)C1O (centres undefined)
GI50 [1]: 0.132 µM
TGI [1]: 3.23 µM
GI50 [2]: 0.111 µM
TGI [2]: 3.3 µM
GI50 [3]: 0.165 µM
TGI [3]: 2.26 µM
GI50 [4]: 1.33 µM
TGI [4]: 11.6 µM
GI50 [5]: 0.144 µM
TGI [5]: 1.16 µM
GI50 [6]: 0.592 µM
TGI [6]: 3.15 µM
GI50 [7]: 0.005 µM
TGI [7]: 0.0351 µM
GI50 [8]: 0.0529 µM
TGI [8]: 0.599 µM
GI50 [9]: 1.4 µM
TGI [9]: 21.9 µM
GI50 [10]: 0.0157 µM
TGI [10]: 0.44 µM
GI50 [11]: 0.437 µM
TGI [11]: 5.3 µM
GI50 [12]: 0.0308 µM
TGI [12]: 8.99 µM
GI50 [13]: 0.123 µM
TGI [13]: 1.43 µM
GI50 [14]: 0.0237 µM
TGI [14]: 0.0562 µM
GI50 [15]: 0.0504 µM
TGI [15]: 1.01 µM
GI50 [16]: 0.0281 µM
TGI [16]: 0.185 µM
GI50 [17]: 0.0889 µM
TGI [17]: 14.2 µM
GI50 [18]: 0.0173 µM
TGI [18]: 0.139 µM
GI50 [19]: 0.173 µM
TGI [19]: 1.5 µM
GI50 [20]: 0.299 µM
TGI [20]: 2.26 µM
GI50 [21]: 0.225 µM
TGI [21]: 3.91 µM
GI50 [22]: 0.371 µM
TGI [22]: 1.46 µM
GI50 [23]: 0.168 µM
TGI [23]: 3.21 µM
GI50 [24]: 0.144 µM
TGI [24]: 2.4 µM
GI50 [25]: 0.962 µM
TGI [25]: 9.04 µM
GI50 [26]: 0.0796 µM
TGI [26]: 5.45 µM
GI50 [27]: 1.06 µM
TGI [27]: 3.78 µM
GI50 [28]: 0.593 µM
TGI [28]: 5.71 µM
GI50 [29]: 0.102 µM
TGI [29]: 2.93 µM
GI50 [30]: 1.92 µM
TGI [30]: 9.53 µM
GI50 [31]: 0.0963 µM
TGI [31]: 5.67 µM
GI50 [32]: 0.0232 µM
TGI [32]: 0.0655 µM
GI50 [33]: 0.056 µM
TGI [33]: 13.3 µM
GI50 [34]: 0.0371 µM
TGI [34]: 0.291 µM
GI50 [35]: 0.005 µM
TGI [35]: 0.23 µM
GI50 [36]: 0.0245 µM
TGI [36]: 0.157 µM
GI50 [37]: 0.0426 µM
TGI [37]: 0.125 µM
GI50 [38]: 0.0232 µM
TGI [38]: 0.721 µM
GI50 [39]: 0.0145 µM
TGI [39]: 0.187 µM
GI50 [40]: 0.0537 µM
TGI [40]: 0.815 µM
GI50 [41]: 0.2 µM
TGI [41]: 1.53 µM
GI50 [42]: 0.386 µM
TGI [42]: 2.8 µM
GI50 [43]: 0.165 µM
TGI [43]: 2.48 µM
GI50 [44]: 0.0128 µM
TGI [44]: 0.311 µM
GI50 [45]: 0.165 µM
TGI [45]: 1.95 µM
GI50 [46]: 0.357 µM
TGI [46]: 12.9 µM
GI50 [47]: 0.00592 µM
TGI [47]: 0.0597 µM
GI50 [48]: 0.0387 µM
TGI [48]: 2.83 µM
GI50 [49]: 0.116 µM
TGI [49]: 2.58 µM
GI50 [50]: 0.0353 µM
TGI [50]: 0.735 µM
GI50 [51]: 0.505 µM
TGI [51]: 1.71 µM
GI50 [52]: 0.119 µM
TGI [52]: 6.97 µM
GI50 [53]: 0.0226 µM
TGI [53]: 0.169 µM
GI50 [54]: 0.0834 µM
TGI [54]: 50 µM
GI50 [55]: 0.0108 µM
TGI [55]: 1.67 µM
GI50 [56]: 0.156 µM
TGI [56]: 3.66 µM
GI50 [57]: 0.215 µM
TGI [57]: 0.903 µM

From PubChem BioAssay (NCI)
